Measured values as given in ChEMBL document CHEMBL1201862, “PubChem BioAssay data set” (2004).
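Test compounds were applied to cells in 96-well plates for 48 hours at 5 doses. GI50 marks 50% less growth.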 Calls of active or inactive are those of the source. Rule as the data show it: active = GI50 up to about 1.1 µM and inactive = higher.

Legend:
Assay in all cases: NCI anticancer screen, dose series, 48 h
[1] = tested on: SF-295
[2] = tested on: SNB-75
[3] = tested on: HT-29
[4] = tested on: 786-0
[5] = tested on: SF-539
[6] = tested on: CAKI-1
[7] = tested on: SK-MEL-28
[8] = tested on: OVCAR-3
[9] = tested on: K562
[10] = tested on: HCT-116
[11] = tested on: HCC 2998
[12] = tested on: NCI-H226
[13] = tested on: LOX IMVI
[14] = tested on: SW-620
[15] = tested on: UACC-62
[16] = tested on: SR
[17] = tested on: OVCAR-4
[18] = tested on: IGROV-1
[19] = tested on: MDA-MB-435

Measured: GI50

COC(=O)N/N=C(/CCN1CCCC1)CC(c1ccccc1)c1c(O)c2ccccc2oc1=O (centres undefined)
inactive: [1] > 100 µM | [2] 30.1 µM | [3] > 100 µM | [4] > 100 µM | [5] > 100 µM | [6] > 100 µM | [7] > 100 µM | [8] > 100 µM | [9] > 100 µM | [10] > 100 µM | [11] > 100 µM | [12] > 100 µM | [13] > 100 µM | [14] > 100 µM | [15] 72.8 µM | [16] > 100 µM | [17] > 100 µM | [18] > 100 µM

[O-][S+]1Cc2ccccc2CSS1 (centres undefined)
inactive: [1] 18.7 µM | [2] 19.6 µM | [3] 14.4 µM | [4] 15.7 µM | [5] 14.5 µM | [6] 16.3 µM | [7] 13.8 µM | [8] 15.1 µM | [9] 12.3 µM | [10] 15 µM | [11] 26.1 µM | [12] 27.2 µM | [13] 3.96 µM | [14] 13.6 µM | [15] 13 µM | [16] 13.9 µM | [17] 16.6 µM | [18] 29.2 µM

O=C(c1ccccc1)[C@H]1Nc2ccc(Cl)cc2[C@H]2c3ccccc3O[C@H]21
inactive: [1] 15.5 µM | [2] 12.4 µM | [3] 12.7 µM | [4] 16.6 µM | [5] 15 µM | [6] 14 µM | [7] 12.3 µM | [8] 13.1 µM | [9] 14.5 µM | [10] 17.2 µM | [11] 16.8 µM | [12] > 10 µM | [13] 20.7 µM | [14] 16.5 µM | [15] 13.6 µM | [16] 16.5 µM | [17] 18.2 µM | [18] 17.7 µM

O=C1NCN(c2ccccc2)C12CCN(CCc1ccc3[nH]c(=S)[nH]c3c1)CC2
inactive: [1] 51.3 µM | [3] 29.3 µM | [4] 33.5 µM | [5] 22.1 µM | [6] > 100 µM | [7] 4.12 µM | [8] 48 µM | [19] 17.3 µM | [10] 43 µM | [13] 18.5 µM | [14] 11.9 µM | [15] 64.9 µM | [17] > 100 µM | [18] 37.6 µM

Nc1cccc2c1-c1c(cccc1[N+](=O)[O-])C2=O
inactive: [1] > 100 µM | [2] > 100 µM | [3] > 100 µM | [4] > 100 µM | [5] > 100 µM | [6] > 100 µM | [8] > 100 µM | [9] > 100 µM | [10] > 100 µM | [11] > 100 µM | [12] > 100 µM | [13] > 100 µM | [14] > 100 µM | [15] > 100 µM | [16] > 100 µM | [17] > 100 µM | [18] > 100 µM

COc1cccc(/C=N/C23CC4CC(CC(C4)C2)C3)c1
inactive: [1] > 100 µM | [2] 55.5 µM | [3] > 100 µM | [4] > 100 µM | [5] > 100 µM | [6] > 100 µM | [7] > 100 µM | [8] > 100 µM | [9] > 100 µM | [10] > 100 µM | [11] > 100 µM | [12] > 100 µM | [13] > 100 µM | [14] > 100 µM | [15] > 100 µM | [16] > 100 µM | [17] > 100 µM | [18] > 100 µM

COc1ccc(C2(CN(C)C)COc3cc(OC)c(OC)cc3C2=O)cc1OC (centres undefined)
inactive: [1] 92.9 µM | [2] 47 µM | [3] 46.7 µM | [4] > 100 µM | [5] 39.9 µM | [6] 42.1 µM | [7] > 100 µM | [8] 86.7 µM | [9] 31.6 µM | [10] 16.3 µM | [11] > 100 µM | [12] 84.9 µM | [13] 16.6 µM | [14] 21.6 µM | [15] 38.7 µM | [16] 30.6 µM | [17] 34.6 µM | [18] > 100 µM

CO[C@H]1CC[C@]2(C)C3=CC[C@@]4(C)C(CC[C@@H]4C(C)CC[C@@H](C)C(C)C)C(=CCC2C1)O3 (some centres undefined)
inactive: [1] > 25 µM | [2] > 25 µM | [3] > 25 µM | [4] > 25 µM | [5] > 25 µM | [6] 10.2 µM | [7] > 25 µM | [8] > 25 µM | [9] > 25 µM | [10] > 25 µM | [11] > 25 µM | [12] > 16.5 µM | [13] > 25 µM | [14] > 25 µM | [15] > 25 µM | [16] > 25 µM | [17] > 25 µM | [18] > 25 µM
